Values of other authors in patent publication US20040265230A1, “Compositions and methods for diagnosing and treating colon cancers” (priority 2003, published 2004).

Legend:
[1] = tested on: lymphoid, myeloid, colon, and prostate cancer cells; conditions: prostate xenografts in nude mice
tumor cells = conditions: read-out: concentration causing 50% growth inhibition of tumor cells

CN1CC[C@H](c2c(O)cc(O)c3c(=O)cc(-c4ccccc4Cl)oc23)[C@H](O)C1 [Flavopiridol]
inhibition of cancer cells grown in vivo as tumor xenografts [1]: inhibits
IC50 (tumor cells): 60 nM
